# Measured values published in patent US20220296613A1, “FOOD-INDEPENDENT DOSING OF CV-10155 TO TREAT GABAA DISORDERS” (priority 2021, published 2022).
# Like-named read-outs stand apart in the source and are kept apart here.
# Legend:
# [1] = Pharmacokinetics of CV-10155 in preclinical rodent studies; conditions: for AUC(0-inf) / Cmax / Tmax: rodent, in vivo, po
# [2] = HV, 60 mg evening dosing (n = 12)
# [3] = humans, 60 mg, day 7 MAD, morning dosing, fasted
# [4] = humans, 60 mg, evening, fed state, N = 9
# [5] = humans, 60 mg, morning, fasted state, N = 9
# [6] = humans, evening, fed state, subject a, dosing day 1
# [7] = humans, evening, fed state, subject l, dosing day 1
# [8] = humans, evening, fed state, subject o, dosing day 3
# [9] = humans, evening, fed state, subject p, dosing day 2
# [10] = humans, evening, fed state, subject p, dosing day 7
# [11] = humans, evening, fed state, subject p, dosing day 8
# [12] = humans, evening, fed state, subject v, dosing day 4
# [13] = 1 mg/kg (minimal effective dose), study including male and female subjects
# [14] = 3 mg/kg, study including male and female subjects
# [15] = 5 mg/kg, study including only male subjects
# [16] = 10 mg/kg, study including male and female subjects
structure (smiles),measurement,setting,value
"C[C@@]1(O)CC[C@@]2(C)[C@@H](CC[C@@H]3[C@@H]2CC[C@]2(C)[C@@H](C(=O)Cn4cc(C#N)cn4)CC[C@@H]32)C1 [CV-10155, 1-[2-[(3R,5S,8R,9S,10S,13S,14S,17S)-3-hydroxy-3,10,13-trimethyl-1,2,4,5,6,7,8,9,11,12,14,15,16,17-tetradecahydrocyclopenta[a]phenanthren-17-yl]-2-oxoethyl]pyrazole-4-carbonitrile]","Dizziness, AEs % of subjects",[2],16.7%
same,"Headache, AEs % of subjects",[2],8.3%
same,"Somnolence, AEs % of subjects",[2],8.3%
same,Racc AUC,"human, in vivo, 60 mg",1.84
same,ratio of Cmax/trough on day 7,"humans, 60 mg daily in the evening in a fed state",3.47
same,ratio of Cmax/trough on day 7,"humans, 60 mg daily in the morning in a fasted state",6.09
same,tolerability profile compared to PRAX-114 and Sage-217,"humans, 60 mg dosed in the evening",favorable tolerability profile compared to PRAX-114 and one comparable to that of Sage-217
same,exposure levels in humans vs 30 mg doses of Sage-217,"humans, 60 mg doses",higher exposure levels
same,"absorption, morning fasted vs evening fed","humans, 60 mg orally once per day for seven days",no significant difference in absorption
same,Cmin,[3],41.5 ng/mL
same,Ratio (Cmax/Cmin),[3],6.07
same,"AE Back pain (Musculoskeletal and connective tissue disorders), #",[4],1
same,"AE Bloating (Gastrointestinal disorders), #",[4],1
same,"AE Dizziness (Nervous system disorders), #",[4],1
same,"AE Headache (Nervous system disorders), #",[4],2
same,"AE Sleepiness (Nervous system disorders), #","humans, 60 mg, evening, fed state, N = 9, printed on two separate lines",1
same,"AE Dizziness (Nervous system disorders), #",[5],1
same,"AE Feeling sleepy (Nervous system disorders), #",[5],1
same,"AE Feeling tired (General disorders and administration site conditions), #",[5],2
same,"AE Headache (Nervous system disorders), #",[5],2
same,"AE Sleepiness (Nervous system disorders), #",[5],9
same,"AE Tiredness (General disorders and administration site conditions), #",[5],3
same,Somnolence: duration,[6],10.62 h
same,Somnolence: severity,[6],Mild
same,Headache: duration,[7],13.25 h
same,Headache: onset from dose,[7],pre-dose
same,Headache: severity,[7],Mild
same,Abdominal distension: duration,[8],06.50 h
same,Abdominal distension: severity,[8],Mild
same,Dizziness: duration,[9],20.50 h
same,Dizziness: severity,[9],Mild
same,Dizziness: duration,[10],13.00 h
same,Dizziness: severity,[10],Mild
same,Headache: duration,[11],14.50 h
same,Headache: severity,[11],Moderate
same,Back pain: duration,[12],39.25 h
same,Back pain: severity,[12],Mild
same,adverse effects that interfere with sleeping,"humans, oral administration in the evening to fed subjects",does not produce adverse effects that interfere with sleeping
same,1/2 life,[1]; [13],3.66-6.82
same,Oral BA,[1]; [13],58.6-92.4
same,Oral BA,"[1]; 2 mg/kg, study including only male subjects",47.2
same,1/2 life,[1]; [14],2.84-4.96
same,Oral BA,[1]; [14],53-92.3
same,1/2 life,[1]; [15],4.19
same,Oral BA,[1]; [15],58.1
same,1/2 life,[1]; [16],3.23-4.80
same,Oral BA,[1]; [16],79.7-100
same,AUC(0-inf),"[1]; both, 1 mg/kg",508 to 1300 ng·h/mL
same,Cmax,"[1]; both, 1 mg/kg",84.4 to 128 ng/mL
same,Tmax,"[1]; both, 1 mg/kg",1.5 to 2 h
same,AUC(0-inf),"[1]; both, 3 mg/kg",1380 to 3900 ng·h/mL
same,Cmax,"[1]; both, 3 mg/kg",270 to 440 ng/mL
same,Tmax,"[1]; both, 3 mg/kg",1.25 to 2.5 h
same,AUC(0-inf),"[1]; both, 10 mg/kg",6850 to 14700 ng·h/mL
same,Cmax,"[1]; both, 10 mg/kg",1160 ng/mL
same,Tmax,"[1]; both, 10 mg/kg",1.25 to 2.25 h
same,AUC(0-inf),"[1]; male, 2 mg/kg",1320 ng·h/mL
same,Cmax,"[1]; male, 2 mg/kg",224 ng/mL
same,Tmax,"[1]; male, 2 mg/kg",1.7 h
same,AUC(0-inf),"[1]; male, 5 mg/kg",2610 ng·h/mL
same,Cmax,"[1]; male, 5 mg/kg",499 ng/mL
same,Tmax,"[1]; male, 5 mg/kg",0.83 h
